# Test results: patent US12180165B2, “Human TLR8-selective agonists” (University of Kansas, priority 2015, dated 2024)
# Counter-ions that a name gives are not always drawn.
# Columns and labels:
# [1] = biological target: T1, human TLR8 (Homo sapiens, UniProt Q9NR97); assay: Human TLR8-specific reporter gene assay (NF-κB induction, sAP readout in HEK293 cells); assay type: cell-based; settings: EC50 in human TLR8-specific reporter gene assay
# T1 construct: expressed in transfected cells; host or cells: HEK293
# T1 sequence (Q9NR97 27-1041): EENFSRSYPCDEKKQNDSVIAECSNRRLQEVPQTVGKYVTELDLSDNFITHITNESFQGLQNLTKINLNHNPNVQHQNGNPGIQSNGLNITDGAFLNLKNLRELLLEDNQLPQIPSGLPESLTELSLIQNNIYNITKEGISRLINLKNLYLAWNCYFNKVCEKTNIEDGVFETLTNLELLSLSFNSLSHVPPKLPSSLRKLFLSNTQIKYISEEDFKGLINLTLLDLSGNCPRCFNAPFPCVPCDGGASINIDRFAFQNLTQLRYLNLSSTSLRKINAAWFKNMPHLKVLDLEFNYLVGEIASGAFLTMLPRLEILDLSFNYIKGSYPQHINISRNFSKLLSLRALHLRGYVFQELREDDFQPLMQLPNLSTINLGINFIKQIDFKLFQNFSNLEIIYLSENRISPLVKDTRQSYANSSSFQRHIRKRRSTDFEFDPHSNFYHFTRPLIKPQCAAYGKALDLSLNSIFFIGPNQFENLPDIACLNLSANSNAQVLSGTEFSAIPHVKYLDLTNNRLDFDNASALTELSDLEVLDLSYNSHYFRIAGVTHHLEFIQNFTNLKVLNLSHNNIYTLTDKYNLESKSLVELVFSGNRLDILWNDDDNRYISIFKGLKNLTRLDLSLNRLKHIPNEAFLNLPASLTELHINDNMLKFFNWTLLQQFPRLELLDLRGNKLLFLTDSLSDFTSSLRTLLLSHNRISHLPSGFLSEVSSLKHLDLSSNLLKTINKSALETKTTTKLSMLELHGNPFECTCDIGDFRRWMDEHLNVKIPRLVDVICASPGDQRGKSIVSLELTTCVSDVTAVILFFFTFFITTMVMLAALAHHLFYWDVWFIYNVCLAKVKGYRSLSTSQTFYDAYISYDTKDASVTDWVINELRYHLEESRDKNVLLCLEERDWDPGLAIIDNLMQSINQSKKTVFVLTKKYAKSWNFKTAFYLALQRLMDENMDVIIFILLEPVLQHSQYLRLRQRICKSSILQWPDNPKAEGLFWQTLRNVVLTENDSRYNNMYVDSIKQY
# Description: (§1) HEK293 cells stably co-transfected with the appropriate hTLR (or NOD) and secreted alkaline phosphatase (sAP) were maintained in HEK-BLUE™ Selection medium. Stable expression of secreted alkaline phosphatase (sAP) under control of NF-κB/AP-1 promoters is inducible by appropriate TLR/NOD agonists, and extracellular sAP in the supernatant is proportional to NF-κB induction. Reporter cells were incubated at a density of ˜10^5 cells/ml in a volume of 80 μl/well, in 384-well, flat-bottomed cell culture-treated microtiter plates in the presence of graded concentrations of stimuli. sAP was assayed spectrophotometrically using an alkaline phosphatase-specific chromogen (present in HEK-detection medium as supplied by InvivoGen) at 620 nm.
# [2] = test system: TLR-2/-3/-4/-5/-7/-9 and NOD-1/NOD-2; assay: TLR-2/-3/-4/-5/-7/-9 and NOD-1/NOD-2 counter-screens (reporter gene assays); assay type: cell-based, human
# Description: as §1
# [3] = test system: human PBMCs; assay: Cytokine/chemokine induction in human peripheral blood mononuclear cells (multiplexed bead array); assay type: cell-based; settings: human PBMCs as well as whole human blood, FIG. 3
# Description: Immunoassays for cytokines.
# [4] = test system: CD14+ monocytes; assay: Eight-color flow cytometry of activation markers in human whole blood; assay type: cell-based; settings: FIG. 5
# Description: Eight-color Flow-cytometric immunostimulation experiments: Cell surface marker upregulation was determined by flow cytometry using protocols as described previously (Hood, J. D. et al. Hum. Vaccin. 2010, 6, 332-335), and modified for rapid-throughput. […] Serial dilutions of selected compounds were performed using a Bio-Tek Precision 2000 XS liquid handler in sterile 96-well polypropylene plates, to which were added 100 mL aliquots of anticoagulated whole human blood. The plates were incubated at 37° C. for 16 h. Negative (endotoxin free water) controls were included in each experiment. The following fluorochrome-conjugated antibodies were used: CD3-PE, CD19-FITC, CD56-APC (eBioscience, San Diego, CA), CD14-V500, CD28 PE-Cy7, CD40 V450, CD80 APC-H7, CD86 PerCP-Cy5.5 (Becton-Dickinson Biosciences, San Jose, CA). Following incubation, 2.5 μg of each antibody was added to wells with a liquid handler, and incubated at 4° C. in the dark for 60 min. […] CD28, CD40, CD80, and CD86 activation in the major leukocyte populations, viz., natural killer lymphocytes (NK cells: CD3-CD56+), cytokine-induced killer phenotype (CIK cells: CD3+CD56+), B lymphocytes (CD19+CD3-), T lymphocytes (CD3+CD56-), monocytes (CD14+), polymorphonuclear cells (CD14-) were quantified using FlowJo v 7.0 software (Treestar, Ashland, OR).
# [5] = biological target: T1, human TLR8; settings: reference compounds, literature values (Kokatla et al.); read-out: TLR8 EC50 (previously reported); cited from earlier work
compound,measurement,setting,value
"CCCCCc1cc2c(Cc3cccc(C(N)=O)c3)cccc2nc1N [Compound 18d, 3-((2-Amino-3-pentylquinolin-5-yl)methyl)benzamide]",TLR8 Agonistic Activity (nM),[1],Inactive
"CCCCCc1c(N)nc2ccccc2c1Cc1ccc(CN)cc1 [Compound 9b, 4-(4-(Aminomethyl)benzyl)-3-pentylquinolin-2-amine dihydrochloride]",specificity for TLR8,[2],retained specificity for TLR8
"CCCCCc1cc2c(-c3cccc(CN)c3)cccc2nc1N [Compound 20a, 5-(3-(Aminomethyl)phenyl)-3-pentylquinolin-2-amine]",TLR8 Agonistic Activity (nM),[1],Inactive
"CCCCCc1cc2c(Cc3ccccc3)cccc2nc1N [Compound 17d, 5-Benzyl-3-pentylquinolin-2-amine]",TLR8 Agonistic Activity (nM),[1],Inactive
"CCCCCc1cc2c(CCCCCN)cccc2nc1N [Compound 34b, 5-(5-Aminopentyl)-3-pentylquinolin-2-amine]","induction of proinflammatory cytokines including TNF-α, IL-12 and IFN-γ",[3],induction of a specific set of proinflammatory cytokines was observed
same,CD40 upregulation,[4],upregulate CD40
same,CD80 expression,[4],strongly induces CD80 expression
"C2-butyl furo[2,3-c]quinoline",EC50,[5],1600 nM
"CCCCCc1cc2cccc(CCCCN)c2nc1N [Compound 37, 8-(4-Aminobutyl)-3-pentylquinolin-2-amine]",TLR8 Agonistic Activity (nM),[1],Inactive
"CCCCCc1c(N)nc2ccccc2c1Cc1cccc(CN)c1 [Compound 9a, 4-(3-(Aminomethyl)benzyl)-3-pentylquinolin-2-amine dihydrochloride]",specificity for TLR8,[2],retained specificity for TLR8
